The record followed here is US20070270421A1, “Novel pyridine Derivative and Pyrimidine Derivative (1)” (priority 2004, published 2007).

pIC50: −log10 of the molar value.

For the assay, the target named is T1, HGFR (His6-HGFR cytoplasmic domain) (Homo sapiens, UniProt P08581).
T1 construct: made in house; host or cells: Spodoptera frugiperda Sf9 insect cells (baculovirus, pFastBac-HT)
The assay is described as follows: Inhibitory activity against HGFR tyrosine kinase activity (HTRF). In kind it is biochemical. As to conditions: biotin-poly(GT), ATP, 30° C. 10 min, read-out: IC50 (concentration necessary to inhibit HGFR kinase activity by 50%). Summed up: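 Baculovirus/Sf9-expressed N-terminal His6-tagged HGFR cytoplasmic domain (from Lys974), Ni-NTA purified, phosphorylated biotin-poly(GT) in Hepes pH 7.4 with MgCl2/MnCl2. ATP added as 4 μM solution; 10 min at 30° C., stopped with EDTA. Phosphotyrosine product detected by HTRF.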
A general note: TR-FRET usually uses a lanthanide donor and a delayed reading to cut background.

T1 sequence (P08581 956-1390 limits assumed): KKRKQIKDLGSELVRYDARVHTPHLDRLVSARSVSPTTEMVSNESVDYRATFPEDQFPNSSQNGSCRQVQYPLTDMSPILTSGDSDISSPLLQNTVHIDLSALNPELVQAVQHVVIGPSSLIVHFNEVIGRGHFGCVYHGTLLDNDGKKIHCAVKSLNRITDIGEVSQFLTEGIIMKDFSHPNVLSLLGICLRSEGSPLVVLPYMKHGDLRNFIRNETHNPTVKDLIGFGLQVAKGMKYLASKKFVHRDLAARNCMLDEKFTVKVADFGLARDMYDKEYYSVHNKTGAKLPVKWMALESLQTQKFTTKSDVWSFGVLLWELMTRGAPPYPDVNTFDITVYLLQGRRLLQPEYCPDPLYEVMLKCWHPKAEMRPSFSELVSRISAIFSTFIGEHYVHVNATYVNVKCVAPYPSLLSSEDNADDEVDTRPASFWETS

For `O=C(CC(=O)Nc1ccc(Oc2ccnc(NC(=O)N3CCCC3)c2)c(F)c1)Nc1ccc(F)cc1` [Example 56, N-(4-Fluorophenyl)-N′-(3-fluoro-4-{2-[(pyrrolidine-1-carbonyl)amino]pyridin-4-yloxy}phenyl)malonamide], the pIC50 is 7.25.

`CN(C)C(=O)Nc1cc(Oc2ccc(NC(=O)NC(=O)Cc3ccccc3)cc2F)ccn1` [Example 44, 2-[(Dimethylamino)carbonylamino]-4-{2-fluoro-4-[3-(2-phenylacetyl)ureido]phenoxy}pyridine]: the pIC50 was 7.35.

On to `O=C(Cc1ccc(F)cc1)NC(=S)Nc1ccc(Oc2cc(NC(=O)N3CCCC3)ncn2)c(F)c1` [Example 3, Pyrrolidine-1-carboxylic acid [6-(2-fluoro-4-{3-[2-(4-fluorophenyl)acetyl]thioureido}phenoxy)pyrimidin-4-yl]amide], for which the pIC50 is 7.15.

As for `CCN(CC)CCCN(C)C(=O)Nc1cc(Oc2ccc(NC(=S)NC(=O)Cc3ccc(F)cc3)cc2F)ccn1` [Example 22, 1-(3-Diethylaminopropyl)-3-[4-(2-fluoro-4-{3-[2-(4-fluorophenyl)acetyl]thioureido}phenoxy)pyridin-2-yl]-1-methylurea], the pIC50 was 6.96.

For the compound `O=C(Cc1ccccc1)NC(=O)Nc1ccc(Oc2ccnc(NC(=O)N3CCCC3)c2)c(F)c1` [Example 43, 4-{2-Fluoro-4-[3-(2-phenylacetyl)ureido]phenoxy}-2-[(pyrrolidin-1-yl)carbonylamino]pyridine], the pIC50 is 7.08.

For `CN1CCCN(C(=O)Nc2cc(Oc3ccc(NC(=O)CC(=O)Nc4ccc(F)cc4)c(F)c3)ccn2)CC1` [Example 92, N-(2-Fluoro-4-{2-[(4-methyl-[1,4]diazepane-1-carbonyl)amino]pyridin-4-yloxy}phenyl)-N′-(4-fluorophenyl)malonamide], the pIC50 was 7.11.

Consider `CN1CCN(C(=O)Nc2cc(Oc3ccc(NC(=O)NC(=O)Cc4ccccc4)cc3F)ccn2)CC1` [Example 50, 4-Methylpiperazine-1-carboxylic acid {4-[2-fluoro-4-(3-phenylacetylureido)phenoxy]pyridin-2-yl}amide], for which the pIC50 was 6.72.

`O=C(Cc1ccccc1)NC(=S)Nc1ccc(Oc2ccnc(NC(=O)N3CCC(O)CC3)c2)c(F)c1` [Example 15, 4-{2-Fluoro-4-[3-(2-phenylacetyl)thioureido]phenoxy}-2-[(4-hydroxypiperidin-1-yl)carbonylamino]pyridine]: the pIC50 was greater than 7.52.

In the case of `CN1CCC(N(C)C(=O)Nc2cc(Oc3ccc(NC(=S)NC(=O)Cc4ccccc4)cc3F)ccn2)CC1` [Example 28, 3-{4-[2-Fluoro-4-(3-phenylacetylthioureido)phenoxy]pyridin-2-yl}-1-methyl-1-(1-methylpiperidin-4-yl)urea], the pIC50 was 7.12.

`O=C(CC(=O)Nc1ccc(Oc2ccnc(NC(=O)N3CCC(N4CCCC4)CC3)c2)cc1F)Nc1ccc(F)cc1` [Example 82, N-(4-Fluorophenyl)-N′-[2-fluoro-4-(2-{[4-(pyrrolidin-1-yl)piperidine-1-carbonyl]amino}pyridin-4-yloxy)phenyl]malonamide]: the pIC50 is 7.18.

On to `Cc1cc(Oc2ccnc(NC(=O)N3CCC(N4CCCC4)CC3)c2)ccc1NC(=O)CC(=O)Nc1ccc(F)cc1` [Example 85, N-(4-Fluorophenyl)-N′-[2-methyl-4-(2-{[(4-pyrrolidin-1-yl)piperidine-1-carbonyl]amino}pyridin-4-yloxy)phenyl]malonamide], for which the pIC50 is 7.02.

With `O=C(Cc1ccc(F)cc1)NC(=S)Nc1ccc(Oc2ccnc(NC(=O)N3CCCC3)c2)c(F)c1` [Example 13, 4-(2-Fluoro-4-{3-[2-(4-fluorophenyl)acetyl]thioureido}phenoxy)-2-[(pyrrolidin-1-yl)carbonylamino]pyridine], the pIC50 is 6.96.

Consider `O=C(Cc1ccccc1)NC(=S)Nc1ccc(Oc2ccnc(NC(=O)N3CCOCC3)c2)c(Cl)c1` [Example 11, 4-{2-Chloro-4-[3-(2-phenylacetyl)thioureido]phenoxy}-2-[(morpholin-4-yl)carbonylamino]pyridine], for which the pIC50 is 7.06.

Consider `O=C(Cc1ccccc1)NC(=O)Nc1ccc(Oc2ccnc(NC(=O)N3CCOCC3)c2)c(F)c1` [Example 48, Morpholine-4-carboxylic acid {4-[2-fluoro-4-(3-phenylacetylureido)phenoxy]pyridin-2-yl}amide], for which the pIC50 is 7.25.

`CN1CCC(N(C)C(=O)Nc2cc(Oc3ccc(NC(=O)CC(=O)Nc4ccc(F)cc4)cc3F)ccn2)CC1` [Example 89, N-(3-Fluoro-4-{2-[3-methyl-3-(1-methylpiperidin-4-yl)ureido]pyridin-4-yloxy}phenyl)-N′-(4-fluorophenyl)malonamide]: the pIC50 was 7.42.

In the case of `O=C(CC(=O)Nc1ccc(Oc2ccnc(NC(=O)C3CC3)c2)cc1F)Nc1ccc(F)cc1` [Example 77, N-(4-Fluorophenyl)-N′-{4-[2-(cyclopropanecarbonylamino)pyridin-4-yloxy]-2-fluorophenyl}malonamide], the pIC50 was 7.89.

For `CN1CCC(N(C)C(=O)Nc2cc(Oc3ccc(NC(=O)NC(=O)Cc4ccccc4)cc3F)ccn2)CC1` [Example 52, 3-{4-[2-Fluoro-4-(3-phenylacetylureido)phenoxy]pyridin-2-yl]-1-methyl-1-(1-methylpiperidin-4-yl)urea], the pIC50 is 7.14.

As to `Cc1cc(NC(=S)NC(=O)Cc2ccc(F)cc2)ccc1Oc1ccnc(NC(=O)N2CCOCC2)c1` [Example 24, Morpholine-4-carboxylic acid (4-{2-methyl-4-[3-(4-fluorophenyl)acetylthioureido]phenoxy}pyridin-2-yl)amide], the pIC50 was 7.27.

As for `CN(C)C(=O)Nc1cc(Oc2ccc(NC(=S)NC(=O)CC3CC4CCC3C4)cc2F)ccn1` (stereo not drawn) [Example 17, 2-[(Dimethylamino)carbonylamino]-4-{2-fluoro-4-[3-(2-norbornaneacetylthio)ureido]phenoxy}pyridine], the pIC50 was 7.19.

`O=C(Cc1ccc(F)cc1)NC(=S)Nc1ccc(Oc2ccnc(NC(=O)N3CCCC3)c2)cc1` [Example 9, Pyrrolidine-1-carboxylic acid [4-(4-{3-[2-(4-fluorophenyl)acetyl]thioureido}phenoxy)pyridin-2-yl]amide]: the pIC50 was 7.28.

With `O=C(Cc1ccccc1)NC(=O)Nc1ccc(Oc2ccnc(NC(=O)N3CCC(N4CCCC4)CC3)c2)c(F)c1` [Example 45, 4-{2-Fluoro-4-[3-(2-phenylacetyl)ureido]phenoxy}-2-{[4-(pyrrolidin-1-yl)piperidin-1-yl]carbonylamino}pyridine], the pIC50 is 7.04.
